ChEMBL document CHEMBL3526090, “Pharmacokinetic mechanism involved in the prolonged high retention of laninamivir in mouse respiratory tissues after intranasal administration of its prodrug laninamivir octanoate” (Drug Metab Dispos, 2013)

How the values were obtained:
Settings in all cases: in vivo, inhaled_or_intranasal
Lung = experiment: Drug uptake in lung of BALB/cAnNCrlCrlj mouse at 0.5 umol/kg administered intranasally measured at 0.25 hrs by microautoradiographic analysis; format: ADME, tissue-based, BALB/cAnNCrlCr
[1] = Drug uptake in bronchi of BALB/cAnNCrlCrlj mouse at 0.5 umol/kg administered intranasally measured at 0.25 hrs by microautoradiographic analysis; format: ADME, BALB/cAnNCrlCr, Bronchus
[2] = Drug uptake in BALB/cAnNCrlCrlj mouse pulmonary alveoli at 0.5 umol/kg administered intranasally measured at 24 hrs by microautoradiographic analysis; format: ADME, BALB/cAnNCrlCr
[3] = Drug uptake in BALB/cAnNCrlCrlj mouse alveolar bronchiole at 0.5 umol/kg administered intranasally measured at 24 hrs by microautoradiographic analysis; format: ADME, BALB/cAnNCrlCr
Blood = experiment: Drug uptake in BALB/cAnNCrlCrlj mouse pulmonary arterial blood at 0.5 umol/kg administered intranasally measured at 24 hrs by microautoradiographic analysis; format: ADME, tissue-based, BALB/cAnNCrlCr
[4] = Drug uptake in BALB/cAnNCrlCrlj mouse bronchial gland at 0.5 umol/kg administered intranasally measured at 24 hrs by microautoradiographic analysis; format: ADME, BALB/cAnNCrlCr
[5] = Drug uptake in BALB/cAnNCrlCrlj mouse cuboidal epithelial cells at 0.5 umol/kg administered intranasally measured at 24 hrs by microautoradiographic analysis; format: ADME, cell-based, BALB/cAnNCrlCr, Epithelial cell
[6] = Drug uptake in BALB/cAnNCrlCrlj mouse terminal bronchiole at 0.5 umol/kg administered intranasally measured at 24 hrs by microautoradiographic analysis; format: ADME, tissue-based, BALB/cAnNCrlCr
[7] = Drug uptake in BALB/cAnNCrlCrlj mouse ciliated columnar epithelial cells at 0.5 umol/kg administered intranasally measured at 24 hrs by microautoradiographic analysis; format: ADME, cell-based, BALB/cAnNCrlCr, Epithelial cell
[8] = Drug uptake in BALB/cAnNCrlCrlj mouse Goblet cells at 0.5 umol/kg administered intranasally measured at 24 hrs by microautoradiographic analysis; format: ADME, BALB/cAnNCrlCr

Measured: Drug uptake

CCCCCCCC(=O)OC[C@@H](O)[C@@H](OC)[C@@H]1OC(C(=O)O)=C[C@H](N[14C](=N)N)[C@H]1NC(C)=O
Active: all assays above
